How the values were obtained:
[1] = test system: fully kindled (stage 5) seizures, amygdala kindled rat; experiment: Amygdala kindled rat model; type: in vivo; conditions: <60 mg/kg i.p.
Description: Amygdala kindling model is an animal model for complex partial seizures, which is the most common type of epilepsy in adults and is often drug resistant.

gross motor function [2] = experiment: Fixed speed rotorod, rat (gross motor function); conditions: Sprague-Dawley, in vivo, po
Method: On the test day following a defined drug pretreatment period, rats received a maximal electroshock (150 mA, 0.2 s duration, 60 Hz) via corneal electrodes. Protection was defined as absence of a full tonic seizure within 10 s of stimulus delivery. Twenty minutes before the MES procedure, the animals were tested on a fixed speed rotorod (best score from 3 trials at 8 r.p.m, trial duration=60 s) to give an early assessment of drug effect on gross motor function.

gross motor function [3] = experiment: Rotorod, mouse (Table 8); conditions: in vivo, po, Table 8, mouse
6 Hz psychomotor seizure = experiment: Mouse 6 Hz model; type: in vivo; conditions: mice, ip, 0.5 hour, 32 mA
Method: Male, Sprague-Dawley rats and CD-1 mice were used for all studies. All animals were allowed ad-lib access to food and water except during experiment. Animals were housed within an animal vivarium maintained under a 12 h light:dark cycle (lights on: 07:00 h), and all experiments were conducted in the animals light phase. For all experiments, animals were habituated to the vivarium for a minimum of 72 h before experimentation. The experimental procedures used in the present investigation were conducted under the Association for Assessment and Accreditation of Laboratory Animal Care (AAALAC) and the Canadian Council on Animal Care (CCAC) guidelines. All compounds were sonicated in 5% Tween 80® in saline or methylcellulose 0.5% (wgt/vol), using MC and sterile water and injected in a dose volume of 5 ml/kg or 10 ml/kg (rat), and 10 ml/kg (mouse). Drugs were administered by either the oral, intraperitoneal or intravenous route. […] Preliminary experiments established that these stimulus parameters elicited a psychomotor seizure, defined as the expression of at least one of the following behaviors: stun/immobility, forelimb clonus, straub tail, vibrissae tremor, lateral head movement in >95% of control animals. Protection was defined as complete absence of all the above behaviors within 20 s of stimulus delivery. The effective dose of compound necessary to protect against psychomotor seizures to 50% of controls (i.e. ED50) was determined by curve fitting program (Prism v.4.02).

[4] = test system: maximal electroshock seizure; experiment: Maximal Electroshock Seizure (MES) rat model; type: in vivo; conditions: po, 0.5 hour
Method: Male, Sprague-Dawley rats and CD-1 mice were used for all studies. All animals were allowed ad-lib access to food and water except during experiment. Animals were housed within an animal vivarium maintained under a 12 h light:dark cycle (lights on: 07:00 h), and all experiments were conducted in the animals light phase. For all experiments, animals were habituated to the vivarium for a minimum of 72 h before experimentation. The experimental procedures used in the present investigation were conducted under the Association for Assessment and Accreditation of Laboratory Animal Care (AAALAC) and the Canadian Council on Animal Care (CCAC) guidelines. All compounds were sonicated in 5% Tween 80® in saline or methylcellulose 0.5% (wgt/vol), using MC and sterile water and injected in a dose volume of 5 ml/kg or 10 ml/kg (rat), and 10 ml/kg (mouse). Drugs were administered by either the oral, intraperitoneal or intravenous route. Male Sprague-Dawley rats of body weight 80-100 g were used for these studies. Each experiment was conducted over 3 consecutive days. On day 1 and 2, each rat received a single electrical stimulus (150 mA, 0.2 s duration, 60 Hz) via corneal electrodes moistened with saline (Shock stimulator type 221: Harvard apparatus). […] Typically this reflected approximately 70-90% of the initial group. […] On the test day following a defined drug pretreatment period, rats received a maximal electroshock (150 mA, 0.2 s duration, 60 Hz) via corneal electrodes. Protection was defined as absence of a full tonic seizure within 10 s of stimulus delivery. Twenty minutes before the MES procedure, the animals were tested on a fixed speed rotorod (best score from 3 trials at 8 r.p.m, trial duration=60 s) to give an early assessment of drug effect on gross motor function.

Row | ED50 at 0.5 hour (gross motor function [2]) [mg/kg] | ED50 at 0.5 hour (gross motor function [3]) [mg/kg] | SMILES | suppression of fully kindled (stage 5) seizures compared to vehicle controls [1] | ED50 (6 Hz psychomotor seizure) [mg/kg] | ED50 [4] [mg/kg]
1 | – | – | NC(=O)C(F)(F)Oc1cc(Cl)cc(C(F)(F)F)c1 [Compound I(E), 2-[3-chloro-5-(trifluoromethyl)-phenoxy]-2,2-difluoro-acetamide] | dose related suppression | – | –
2 | > 500 | > 160 | CN(CC(N)=O)c1cc(C(F)(F)F)cc(C(F)(F)F)c1 [I(A), 2-[(3,5-Bis-trifluoromethyl-phenyl)-methyl-amino]-acetamide] | – | 62.5 ± 1 | 48 ± 1.1
